{"source": "patent US12285462B2", "about": "“pH-triggered membrane peptide-mediated epitope tethering at cell surfaces” (UNIVERSITY OF RHODE ISLAND BOARD OF TRUSTEES, priority 2019, dated 2025)", "system": "HeLa cells (tumor spheroids)", "assay": "Complement-mediated killing of tumor spheroids (anti-DNP antibody or human IgM, human serum with active complement, PI staining)", "format": "cell-based", "conditions": "5 µM construct 1 hour PBS pH6.5, anti-DNP antibody or human IgM 1 hr pH7.4, human serum with active complement and PI, FIG. 8, imaged 2 hours after treatment", "experimental": "The key for induction of immunological response is a proper positioning of epitope at the surface of tumor cells, which was verified on 3-D tumor cancer cell culture (tumor spheroids). Briefly, a 2% agarose solution was made by dissolving in pH 7.4 PBS. 150 μL of the solution was pipetted into each well of a 48-well flat bottom tissue culture plate. After the agarose gel sufficiently settled (˜1 h), 150 μL of DMEM supplemented with 10% FBS and ciprofloxacin-HCl was added to each well. The covered plate was left in a humidified atmosphere at 37° C. and 5% CO2 in cell culture incubator for 24 h. On the next day, the excess medium was removed from the agarose layer. HeLa cells (10,000 cells) in 200 μL of DMEM containing 2% matrigel were added into each well and incubated for 3-4 days to allow the formation of spheroids. Matrigel was dissolved on ice overnight and added in ice cold DMEM at a concentration of 2.5% (to obtain a final concentration of 2% once added to the wells). Then the mixture was heated to 37° C. before being combined with the cells. […] After treatment, the spheroids were washed several times in 1 mL of PBS. Next, spheroids were treated with anti-DNP antibody labeled with 647 nm fluorescent dye at pH 7.4 followed by washing. Spheroids were also stained with DAPI to mark cell nucleus. […]", "note": "Primed or numbered codes have the meaning given here. Where no end group is shown, it is not given here. Side-chain parts run from the residue outwards. The star is where a group is joined. Dnp = O=[N+]([O-])c1ccc(*)c([N+](=O)[O-])c1; PEG12′ = not defined here", "data": [{"substance": "DNP-PEG12-pHLIP®: DNP-PEG12-NHS conjugated with single Lys residue at N-terminal of pHLIP® peptide Ac-AKDDQNPWRAYLDLLFPTDTLLLDLLWA (SEQ ID NO: 510) (Ac-AK([PEG12′-Dnp])DDQNPWRAYLDLLFPTDTLLLDLLWA)", "values": [{"measurement": "PI staining (red color) of dead or dying cells after complement-mediated attack", "result": "plasma membrane of cells was comrpomized by complement-mediated attack and that the cells were dying"}]}]}
